Reference: US8592383B2, “Cycloalkyl-fused tetrahydroquinolines as CRTH2 receptor modulators” (Merck Sharp & Dohme Corp., priority 2011, dated 2013)

molecular target: T1, hCRTH2 (Homo sapiens, UniProt Q9Y5Y4); design: expressed in transfected cells; host or cells: HEK (human embryonic kidney) cells expressing hCRTH2; conditions: Radioligand Binding Assay B; 0.7 nM [3H]PGD2, HEK-hCRTH2 membranes
T1 sequence (Q9Y5Y4 1-395): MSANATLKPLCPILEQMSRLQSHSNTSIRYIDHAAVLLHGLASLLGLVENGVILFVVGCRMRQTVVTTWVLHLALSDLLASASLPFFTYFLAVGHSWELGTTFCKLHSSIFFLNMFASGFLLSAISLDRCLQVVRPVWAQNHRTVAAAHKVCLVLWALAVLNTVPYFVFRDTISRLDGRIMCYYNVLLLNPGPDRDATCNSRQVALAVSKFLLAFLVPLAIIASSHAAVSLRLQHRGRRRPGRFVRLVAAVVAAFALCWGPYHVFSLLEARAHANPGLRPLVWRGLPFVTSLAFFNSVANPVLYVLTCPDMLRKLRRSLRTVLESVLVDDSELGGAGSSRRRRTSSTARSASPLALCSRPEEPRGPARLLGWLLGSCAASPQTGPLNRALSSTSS
Procedure: The filters were then washed with 4 mL of the same buffer and residual radioligand bound to the filter was determined by liquid scintillation counting following equilibration in 25 μl Ultima Gold F™ (Unifilter) (Packard).

| SMILES | Ki [nM] |
| --- | --- |
| O=C(O)CCC(=O)N(C1CC1)C1c2ccccc2N(C(=O)c2ccc(Cl)cc2)C2CCCC21 (racemic) [14K, 4-[{cis,cis-4-[(4-chlorophenyl)carbonyl]-2,3,3a,4,9,9a-hexahydro-1H-cyclopenta[b]quinolin-9-yl}(cyclopropyl)amino]-4-oxobutanoic acid] | 18.4 |
| COC(=O)CCC(=O)N(C1CC1)C1c2ccccc2N(C(=O)c2ccc(Cl)cc2)C2CCCC21 (racemic) [14P, methyl 4-[{cis,cis-4-[(4-chlorophenyl)carbonyl]-2,3,3a,4,9,9a-hexahydro-1H-cyclopenta[b]quinolin-9-yl}(cyclopropyl)amino]-4-oxobutanoate] | 414 |
| COC(=O)CCC(=O)N(C1CC1)C1c2ccc(F)cc2N(C(=O)c2ccccc2)C2CCCC21 (racemic) [16C, Methyl 4-{cyclopropyl[cis,cis-6-fluoro-4-(phenylcarbonyl)-2,3,3a,4,9,9a-hexahydro-1H-cyclopenta[b]quinolin-9-yl]amino}-4-oxobutanoate] | 140 |
| O=C(O)CCC(=O)N(C1CC1)C1c2ccccc2N(C(=O)OCc2ccc(Cl)cc2)C2CCCC21 (racemic) [21A, 4-{[cis, cis-4-{[(4-chlorobenzyl)oxy]carbonyl}-2,3,3a,4,9,9a-hexahydro-1H-cyclopenta[b]quinolin-9-yl](cyclopropyl)amino}-4-oxobutanoic acid] | 45.7 |

same assay, conditions: Radioligand Binding Assay B; Table B, rated A-D

| SMILES | Ki [nM] |
| --- | --- |
| O=C(O)CCC(=O)N(C1CC1)C1c2ccccc2N(C(=O)C2CC2)C2CCCC21 (racemic) [14G, 4-{cyclopropyl[cis,cis-4-(cyclopropylcarbonyl)-2,3,3a,4,9,9a-hexahydro-1H-cyclopenta[b]quinolin-9-yl]amino}-4-oxobutanoic acid] | 20.1 to 200 |
| O=C(O)CCC(=O)N(C1CC1)C1c2ccccc2N(C(=O)c2cccc(N3CCOCC3)c2)C2CCCC21 (racemic) [14H, 4-(cyclopropyl{cis,cis-4-[(3-morpholin-4-ylphenyl)carbonyl]-2,3,3a,4,9,9a-hexahydro-1H-cyclopenta[b]quinolin-9-yl}amino)-4-oxobutanoic acid] | 20.1 to 200 |
| O=C(O)CCC(=O)N(C1CC1)C1c2ccccc2N(C(=O)c2ccc(Cl)cc2)C2CCCC21 (racemic) [14K, 4-[{cis,cis-4-[(4-chlorophenyl)carbonyl]-2,3,3a,4,9,9a-hexahydro-1H-cyclopenta[b]quinolin-9-yl}(cyclopropyl)amino]-4-oxobutanoic acid] | 5.1 to 20 |
| COc1ccc(C(=O)N2c3ccccc3C(N(C(=O)CCC(=O)O)C3CC3)C3CCCC32)cc1 (racemic) [14L, 4-(cyclopropyl{cis,cis-4-[(4-methoxyphenyl)carbonyl]-2,3,3a,4,9,9a-hexahydro-1H-cyclopenta[b]quinolin-9-yl}amino)-4-oxobutanoic acid] | 20.1 to 200 |
| COC(=O)CCC(=O)N(C1CC1)C1c2ccccc2N(C(=O)c2cc3ccccc3n2C)C2CCCC21 (racemic) [14N, methyl 4-(cyclopropyl{cis,cis-4-[(1-methyl-1H-indol-2-yl)carbonyl]-2,3,3a,4,9,9a-hexahydro-1H-cyclopenta[b]quinolin-9-yl}amino)-4-oxobutanoate] | 201 to 7500 |
| COC(=O)CCC(=O)N(C1CC1)C1c2ccccc2N(C(=O)c2ccc(Cl)cc2)C2CCCC21 (racemic) [14P, methyl 4-[{cis,cis-4-[(4-chlorophenyl)carbonyl]-2,3,3a,4,9,9a-hexahydro-1H-cyclopenta[b]quinolin-9-yl}(cyclopropyl)amino]-4-oxobutanoate] | 201 to 7500 |
| O=C(O)CCC(=O)N(C1CC1)C1c2ccccc2N(C(=O)c2cccnc2)C2CCCC21 (racemic) [14i, 4-{cyclopropyl[cis,cis-4-(pyridin-3-ylcarbonyl)-2,3,3a,4,9,9a-hexahydro-1H-cyclopenta[b]quinolin-9-yl]amino}-4-oxobutanoic acid] | 20.1 to 200 |
| COC(=O)CCC(=O)N(C1CC1)C1c2ccccc2N(C(=O)c2ccsc2)C2CCCC21 (racemic) [14o, methyl 4-{cyclopropyl[cis,cis-4-(thiophen-3-ylcarbonyl)-2,3,3a,4,9,9a-hexahydro-1H-cyclopenta[b]quinolin-9-yl]amino}-4-oxobutanoate] | 201 to 7500 |
| COC(=O)CCC(=O)N(C1CC1)C1c2ccc(F)cc2N(C(=O)c2cccnc2)C2CCCC21 (racemic) [16A, Methyl 4-{cyclopropyl[cis,cis-6-fluoro-4-(pyridin-3-ylcarbonyl)-2,3,3a,4,9,9a-hexahydro-1H-cyclopenta[b]quinolin-9-yl]amino}-4-oxobutanoate] | 201 to 7500 |
| COC(=O)CCC(=O)N(C1CC1)C1c2ccc(F)cc2N(C(=O)c2ccc(Oc3ccccc3)cc2)C2CCCC21 (racemic) [16B, Methyl 4-{cyclopropyl[cis,cis-6-fluoro-4-[(4-phenoxyphenyl)carbonyl]-2,3,3a,4,9,9a-hexahydro-1H-cyclopenta[b]quinolin-9-yl}amino)-4-oxobutanoate] | 5.1 to 20 |
| COC(=O)CCC(=O)N(C1CC1)C1c2ccc(F)cc2N(C(=O)c2ccccc2)C2CCCC21 (racemic) [16C, Methyl 4-{cyclopropyl[cis,cis-6-fluoro-4-(phenylcarbonyl)-2,3,3a,4,9,9a-hexahydro-1H-cyclopenta[b]quinolin-9-yl]amino}-4-oxobutanoate] | 20.1 to 200 |
| O=C(O)CCC(=O)N(C1CC1)C1c2ccc(F)cc2N(C(=O)c2ccc(Oc3ccccc3)cc2)C2CCCC21 (racemic) [16E, 4-{cyclopropyl[cis,cis-6-fluoro-4-[(4-phenoxyphenyl)carbonyl]-2,3,3a,4,9,9a-hexahydro-1H-cyclopenta[b]quinolin-9-yl}amino)-4-oxobutanoic acid] | 1 to 5 |
| O=C(O)/C=C/C(=O)N(CC1CC1)C1c2ccccc2N(C(=O)c2ccccc2)C2CCCC12 (racemic) [17H, (2E)-4-[[cis,cis-4-benzoyl-2,3,3a,4,9,9a-hexahydro-1H-cyclopenta[b]quinolin-9-yl](cyclopropylmethyl)amino]-4-oxo-2-butenoic acid] | 201 to 7500 |
| CN(C(=O)CCCC(=O)O)C1c2ccccc2N(C(=O)c2ccccc2)C2CCCC12 (racemic) [17N] | 201 to 7500 |
| CN(C(=O)/C=C/C(=O)O)C1c2ccccc2N(C(=O)c2ccccc2)C2CCCC12 (racemic) [17P, (2E)-4-[[cis,cis-4-benzoyl-2,3,3a,4,9,9a-hexahydro-1H-cyclopenta[b]quinolin-9-yl]methylamino]-4-oxo-2-butenoic acid] | 201 to 7500 |
| CN(C(=O)/C=C/C(=O)O)C1c2ccccc2N(C(=O)c2ccc(OC(F)(F)F)cc2)C2CCCC12 (racemic) [17Q, (2E)-4-[[cis,cis-2,3,3a,4,9,9a-hexahydro-4-[4-(trifluoromethoxy)benzoyl]-1H-cyclopenta[b]quinolin-9-yl]methylamino]-4-oxo-2-butenoic acid] | 201 to 7500 |
| CN(C(=O)CCCC(=O)O)C1c2ccccc2N(C(=O)c2ccc(OC(F)(F)F)cc2)C2CCCC12 (racemic) [17o, 5-[[cis,cis-2,3,3a,4,9,9a-hexahydro-4-[4-(trifluoromethoxy)benzoyl]-1H-cyclopenta[b]quinolin-9-yl]methylamino]-5-oxopentanoic acid] | 201 to 7500 |
| O=C(O)CCC(=O)N(C1CC1)C1c2ccccc2N(C(=O)OCc2ccc(Cl)cc2)C2CCCC21 (racemic) [21A, 4-{[cis, cis-4-{[(4-chlorobenzyl)oxy]carbonyl}-2,3,3a,4,9,9a-hexahydro-1H-cyclopenta[b]quinolin-9-yl](cyclopropyl)amino}-4-oxobutanoic acid] | 20.1 to 200 |
| O=C(O)CCC(=O)N(C1CC1)C1c2ccccc2N(C(=O)Oc2ccc(F)cc2)C2CCCC21 (racemic) [21B, 4-(cyclopropyl{cis, cis-4-[(4-fluorophenoxy)carbonyl]-2,3,3a,4,9,9a-hexahydro-1H-cyclopenta[b]quinolin-9-yl}amino)-4-oxobutanoic acid] | 201 to 7500 |
| O=C(O)CCC(=O)N(C1CC1)C1c2ccccc2N(C(=O)OCc2ccc3ccccc3c2)C2CCCC21 (racemic) [21C, 4-(cyclopropyl{cis, cis-4-[(naphthalen-2-ylmethoxy)carbonyl]-2,3,3a,4,9,9a-hexahydro-1H-cyclopenta[b]quinolin-9-yl}amino)-4-oxobutanoic acid] | 20.1 to 200 |
| O=C(O)CCC(=O)N(C1CC1)C1c2ccccc2N(C(=O)OCc2ccccc2F)C2CCCC21 (racemic) [21D, 4-{cyclopropyl[cis, cis-4-{[(2-fluorobenzyl)oxy]carbonyl}-2,3,3a,4,9,9a-hexahydro-1H-cyclopenta[b]quinolin-9-yl]amino}-4-oxobutanoic acid] | 20.1 to 200 |
| COc1ccc(COC(=O)N2c3ccccc3C(N(C(=O)CCC(=O)O)C3CC3)C3CCCC32)cc1 (racemic) [21E, 4-{cyclopropyl[cis, cis-4-{[(4-methoxybenzyl)oxy]carbonyl}-2,3,3a,4,9,9a-hexahydro-1H-cyclopenta[b]quinolin-9-yl]amino}-4-oxobutanoic acid] | 20.1 to 200 |
